System: BALB/c mice
Test: In vivo translation efficacy of FLuc-encoding mRNA-LNPs (whole body bioluminescence)
Settings: 10 μg mRNA i.v., 4, 8 and 24 h
Procedure: Two reporters were selected to determine in vivo protein production: firefly luciferase (FLuc) and human erythropoietin (hEPO). The mRNA encoding each gene was obtained by IVT using T7 RNA polymerase for co-transcriptional capping with m^7Gppp^5′SAmpG and m^7GpppAmpG as the reference cap structure. 500 μl or 1000 μl of the IVT mix (for obtaining mRNA encoding hEPO or FLuc, respectively) contained following components at indicated final concentration: transcription buffer with 2 mM spermidine and Bis-Tris pH 6.5, 1 U/μl RNase inhibitor (RiboLock, ThermoFisher Scientific), 5 mM ATP, CTP and UTP, 4 mM GTP, 10 mM DTT, 25 mM MgCl2, 0.002 U/μl inorganic pyrophosphatase (ThermoFisher Scientific), 10 mM m^7GpppAmpG or m^7Gppp^5’SAmpG, 40 ng/μl linearized plasmid as the DNA template and 0.125 μg/μl T7 RNA polymerase (in-house prepared). All components were gently mixed by pipetting and incubated for one hour at 37°C. After DNA template removal, obtained mRNA was initially purified using oligo(dT)25 resin, as previously described, and concentrated by ultrafiltration (Amicon Ultra-15 50K or 100K, Millipore) prior loading on preparative column. […] Eluate quality was analyzed on 1 × TBE 1.2% agarose gel, and the fractions containing mRNA of the highest purity were combined, desalted by ultrafiltration (Amicon Ultra-15 50K or 100K, Millipore), and precipitated. […]

CO[C@@H]1[C@H](OP(=O)(O)OC[C@H]2O[C@@H](n3cnc4c(=O)[nH]c(N)nc43)[C@H](O)[C@@H]2O)[C@@H](CSP(=O)([O-])OP(=O)(O)OP(=O)(O)OC[C@H]2O[C@@H](n3c[n+](C)c4c(O)nc(N)nc43)[C@H](O)[C@@H]2O)O[C@H]1n1cnc2c(N)ncnc21 [Compound 8, m^7Gppp^5’SAmpG]
FLuc protein expression (whole body bioluminescence) versus m^7GpppAmpG-capped mRNA (in words) (GeneVoy LNP): the effect was the opposite
FLuc protein expression (whole body bioluminescence) versus m^7GpppAmpG-capped mRNA (in words) (SM-102 LNP): no significant differences

Source: publication PMC11472058, “Trinucleotide cap analogs with triphosphate chain modifications: synthesis, properties, and evaluation as mRNA capping reagents” (Nucleic Acids Research, 2024)
